According to the supplement of paper PMC11451515:

What was measured:
Settings in all cases: 48 h
[1] = system: NOMO1; assay: cell viability relative to DMSO control; higher = less cytotoxic
Procedure, shortened: (§1)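 Library compounds in DMSO were pin-dosed in an 11-point threefold series (47 μM to 0.79 nM) onto leukemia cells in 1536-well plates (5 μl). Plates held 500 cells/well of NOMO1 or SEM or 1000 cells/well of P12-Ichikawa, each adapted for at least four passages in each medium. Luminescence was read with CellTiter-Glo One after 48 h at 37°C. Viability means the per-plate percentage relative to DMSO wells, using cell-free wells as background.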

[2] = system: P12-Ichikawa; assay: as above
Procedure, shortened: as §1

[3] = system: SEM cells; assay: as above
Procedure, shortened: as §1

[4] = system: P12-Ichikawa; assay: AUC of viability dose-response curve (% viability x log10 dose units); higher = less sensitive
Procedure, shortened: (§2)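 Seeding of medium-adapted leukemia cells was at 500 or 1000 cells/well in 1536-well plates, followed by 48 h at 37°C with library compounds in DMSO at 11 threefold doses from 47 μM to 0.79 nM. CellTiter-Glo One luminescence was normalised per plate to DMSO and cell-free wells and fitted as a four-parameter log-logistic function of log10 dose. Area under the curve was integrated by trapezoidal rule, with curves exceeding full viability scaled and curves failing quality control removed.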

[5] = system: SEM cells; assay: as above
Procedure, shortened: as §2

[6] = system: NOMO1; assay: as above
Procedure, shortened: as §2

C[C@@H](O)[C@@H]1NC(=O)[C@H](CCCCN)NC(=O)[C@@H](Cc2c[nH]c3ccccc23)NC(=O)[C@H](Cc2ccccc2)NC(=O)[C@@H](NC(=O)[C@H](N)Cc2ccccc2)CSSC[C@@H](C(=O)N[C@H](CO)[C@@H](C)O)NC1=O
cell viability [%]
Settings	[1]	[2]	[3]
HPLM + 10% dialyzed FBS, 0.000781 µM	75.7	84.1	71.3
HPLM + 10% dialyzed FBS, 0.00234 µM	75	94.4	83.6
HPLM + 10% dialyzed FBS, 0.00702 µM	90	88.9	87.8
HPLM + 10% dialyzed FBS, 0.0211 µM	88.1	90.5	91
HPLM + 10% dialyzed FBS, 0.0632 µM	103	91.7	99
HPLM + 10% dialyzed FBS, 0.19 µM	83.6	94.1	78.3
HPLM + 10% dialyzed FBS, 0.569 µM	91.8	91.3	83.4
HPLM + 10% dialyzed FBS, 1.71 µM	82.5	95.8	91.2
HPLM + 10% dialyzed FBS, 5.12 µM	74.2	89.4	97.5
HPLM + 10% dialyzed FBS, 15.4 µM	81.8	92	97.7
HPLM + 10% dialyzed FBS, 46.1 µM	75.9	95	84.6
RPMI 5 mM glucose + 10% FBS, 0.000781 µM	74.6	76.4	67.4
RPMI 5 mM glucose + 10% FBS, 0.00234 µM	79.4	85.1	94.4
RPMI 5 mM glucose + 10% FBS, 0.00702 µM	83.1	83	83.2
RPMI 5 mM glucose + 10% FBS, 0.0211 µM	79.3	87.2	105
RPMI 5 mM glucose + 10% FBS, 0.0632 µM	83.3	81.7	90.6
RPMI 5 mM glucose + 10% FBS, 0.19 µM	81.6	81.3	55.5
RPMI 5 mM glucose + 10% FBS, 0.569 µM	84.5	83	82.6
RPMI 5 mM glucose + 10% FBS, 1.71 µM	76.8	83.8	91.6
RPMI 5 mM glucose + 10% FBS, 5.12 µM	80.7	86.4	101
RPMI 5 mM glucose + 10% FBS, 15.4 µM	81.1	78.8	90.4
RPMI 5 mM glucose + 10% FBS, 46.1 µM	83.5	81	70.4
RPMI 5 mM glucose + 10% dialyzed FBS, 0.000781 µM	86.9	83	64.8
RPMI 5 mM glucose + 10% dialyzed FBS, 0.00234 µM	89	80.8	81
RPMI 5 mM glucose + 10% dialyzed FBS, 0.00702 µM	87	85.7	84.5
RPMI 5 mM glucose + 10% dialyzed FBS, 0.0211 µM	92.2	82.6	86.1
RPMI 5 mM glucose + 10% dialyzed FBS, 0.0632 µM	93.6	84.9	78.7
RPMI 5 mM glucose + 10% dialyzed FBS, 0.19 µM	85.3	79.8	75.1
RPMI 5 mM glucose + 10% dialyzed FBS, 0.569 µM	101	80.1	81.7
RPMI 5 mM glucose + 10% dialyzed FBS, 1.71 µM	92.5	84.7	74.7
RPMI 5 mM glucose + 10% dialyzed FBS, 5.12 µM	91.2	79.8	97.1
RPMI 5 mM glucose + 10% dialyzed FBS, 15.4 µM	103	79.9	85.6
RPMI 5 mM glucose + 10% dialyzed FBS, 46.1 µM	112	79.7	67.3

AUC of viability dose-response curve
Settings	HPLM + 10% dialyzed FBS	RPMI 5 mM glucose + 10% FBS	RPMI 5 mM glucose + 10% dialyzed FBS
[4]	438	395	391
[5]	422	404	380

CC1=CC=C(C=C1)\C2=N\C3=CC=C(Cl)C=C3OC2
AUC of viability dose-response curve
Settings	[4]	[5]	[6]
HPLM + 10% dialyzed FBS	439	427	451
RPMI 5 mM glucose + 10% FBS	424	418	439
RPMI 5 mM glucose + 10% dialyzed FBS	440	392	457

Cn1cc(-c2ccc(F)c(C(F)(F)F)c2)nc1C1CCN(c2ncnc3[nH]ncc23)CC1
AUC of viability dose-response curve
Settings	[4]	[5]	[6]
HPLM + 10% dialyzed FBS	463	441	447
RPMI 5 mM glucose + 10% FBS	444	461	447
RPMI 5 mM glucose + 10% dialyzed FBS	446	449	435
